From publication PMC4460250, “Systems Pharmacology Dissecting Holistic Medicine for Treatment of Complex Diseases: An Example Using Cardiocerebrovascular Diseases Treated by TCM” (Evidence-based Complementary and Alternative Medicine : eCAM, 2015)

Key:
[1] = in vivo; cited from earlier work
[2] = in vivo

Row | SMILES | HIA(Human Intestinal Absorption) [1] | Class(High: HIA value ≥0.7; Low: HIA value < 0.7) [2]
1 | O=C1Nc2ccc(Cl)cc2C(c2ccccc2Cl)=N[C@H]1O [Lorazepam(S)] | 0.95 | High (key: High: HIA value ≥0.7; Low: HIA value < 0.7)
2 | NC[C@H](CC(=O)O)c1ccc(Cl)cc1 [Baclofen(R)] | 0.95 | High (key: High: HIA value ≥0.7; Low: HIA value < 0.7)
3 | CCN(C)C(=O)Oc1cccc([C@H](C)N(C)C)c1 [Rivastigmine] | 0.98 | High (key: High: HIA value ≥0.7; Low: HIA value < 0.7)
4 | Cc1nnc2n1-c1ccc(Cl)cc1C(c1ccccc1)=NC2 [Alprazolam] | 0.9 | High (key: High: HIA value ≥0.7; Low: HIA value < 0.7)
5 | Cc1ccc(-c2nc3ccc(C)cn3c2CC(=O)N(C)C)cc1 [Zolpidem] | 0.95 | High (key: High: HIA value ≥0.7; Low: HIA value < 0.7)
6 | CN(C)C(=O)O[C@H]1N=C(c2ccccc2)c2cc(Cl)ccc2N(C)C1=O [Camazepam(R)] | 1 | High (key: High: HIA value ≥0.7; Low: HIA value < 0.7)
7 | CC(C)(C)NCC(O)COc1ccccc1C1CCCC1 (stereo in doubt) [Penbutolol(R)] | 1 | High (key: High: HIA value ≥0.7; Low: HIA value < 0.7)
8 | CC[C@H](C(=O)O)c1ccc(N2Cc3ccccc3C2=O)cc1 [Indobufen(S)] | 1 | High (key: High: HIA value ≥0.7; Low: HIA value < 0.7)
9 | O[C@](CCN1CCCCC1)(c1ccccc1)C1CCCCC1 [Trihexyphenidyl(S)] | 1 | High (key: High: HIA value ≥0.7; Low: HIA value < 0.7)
10 | C#CCN(C)C(C)Cc1ccccc1 (stereo in doubt) [Selegiline(S)] | 1 | High (key: High: HIA value ≥0.7; Low: HIA value < 0.7)
11 | CCCC(=O)Nc1ccc(OC[C@@H](O)CNC(C)C)c(C(C)=O)c1 [Acebutolol(S)] | 0.85 | High (key: High: HIA value ≥0.7; Low: HIA value < 0.7)
12 | CN1C(=O)C[C@](C)(c2ccccc2)C1=O [Methsuximide(R)] | 1 | High (key: High: HIA value ≥0.7; Low: HIA value < 0.7)
13 | CN(C)C(=O)O[C@@H]1N=C(c2ccccc2)c2cc(Cl)ccc2N(C)C1=O [Camazepam(S)] | 1 | High (key: High: HIA value ≥0.7; Low: HIA value < 0.7)
14 | CN1CCC[C@H]1c1cccnc1 [Nicotine(S)] | 1 | High (key: High: HIA value ≥0.7; Low: HIA value < 0.7)
15 | COc1ccccc1OC[C@H](O)COC(N)=O [Methocarbamol(S)] | 1 | High (key: High: HIA value ≥0.7; Low: HIA value < 0.7)
16 | OC(O)C(Cl)(Cl)Cl [Chloral_hydrate] | 1 | High (key: High: HIA value ≥0.7; Low: HIA value < 0.7)
17 | O=C1CN=C(c2ccccc2)c2cc([N+](=O)[O-])ccc2N1 [Nitrazepam] | 0.95 | High (key: High: HIA value ≥0.7; Low: HIA value < 0.7)
18 | Clc1ccc(CO[C@@H](Cn2ccnc2)c2ccc(Cl)cc2Cl)c(Cl)c1 [Miconazole(R)] | 0.99 | High (key: High: HIA value ≥0.7; Low: HIA value < 0.7)
19 | CC(C)(C)NC[C@@H](O)c1ccc(O)c(CO)c1 [Albuterol(S)] | 0.83 | High (key: High: HIA value ≥0.7; Low: HIA value < 0.7)
20 | Cc1nccn1C[C@@H]1CCc2c(c3ccccc3n2C)C1=O [Ondansetron(S)] | 1 | High (key: High: HIA value ≥0.7; Low: HIA value < 0.7)
21 | O=C(NC[C@H]1CCCCN1)c1cc(OCC(F)(F)F)ccc1OCC(F)(F)F [Flecainide(R)] | 0.81 | High (key: High: HIA value ≥0.7; Low: HIA value < 0.7)
22 | C[C@H](C(=O)O)c1ccc(-c2ccccc2)c(F)c1 [Flurbiprofen(S)] | 0.95 | High (key: High: HIA value ≥0.7; Low: HIA value < 0.7)

Row | SMILES | HIA(Human Intestinal Absorption) [1] | Class(High: HIA value ≥0.7; Low: HIA value < 0.7) [2]
23 | CC(C)(C)c1ccc([C@@H](O)CCCN2CCC(C(O)(c3ccccc3)c3ccccc3)CC2)cc1 [Terfenadine(S)] | 1 | High (key: High: HIA value ≥0.7; Low: HIA value < 0.7)
24 | CCOC(=O)C1(c2ccccc2)CCN(C)CC1 [Meperidine] | 1 | High (key: High: HIA value ≥0.7; Low: HIA value < 0.7)
25 | CCC[C@@H](C)C1(CC)C(=O)NC(=O)NC1=O [Pentobarbital(R)] | 1 | High (key: High: HIA value ≥0.7; Low: HIA value < 0.7)
26 | CCC[C@H](C)C1(CC)C(=O)NC(=O)NC1=O [Pentobarbital(S)] | 1 | High (key: High: HIA value ≥0.7; Low: HIA value < 0.7)
27 | CC(C)=CCN1CCC2(C)c3cc(O)ccc3CC1C2C (centres unmarked) [Pentazocine] | 0.95 | High (key: High: HIA value ≥0.7; Low: HIA value < 0.7)
28 | CC(C)NC[C@H](O)c1ccc(O)c(O)c1 [Isoproterenol(R)] | 0.85 | High (key: High: HIA value ≥0.7; Low: HIA value < 0.7)
29 | C[C@H]1COc2c(N3CCN(C)CC3)c(F)cc3c(=O)c(C(=O)O)cn1c23 [Ofloxacin(S)] | 1 | High (key: High: HIA value ≥0.7; Low: HIA value < 0.7)
30 | N[C@@H](C(=O)N[C@@H]1C(=O)N2C(C(=O)O)=C(Cl)CC[C@H]12)c1ccccc1 [Loracarbef] | 1 | High (key: High: HIA value ≥0.7; Low: HIA value < 0.7)
31 | CC1(C)S[C@@H]2[C@H](NC(=O)COc3ccccc3)C(=O)N2[C@H]1C(=O)O [Phenoxymethyl penicillinic acid] | 0.45 | Low (key: High: HIA value ≥0.7; Low: HIA value < 0.7)
32 | CCN1CCC[C@H]1CNC(=O)c1cc(S(=O)(=O)CC)ccc1OC [Sultopride(S)] | 0.89 | High (key: High: HIA value ≥0.7; Low: HIA value < 0.7)
33 | C[C@H](CN(C)C)CN1c2ccccc2CCc2ccccc21 [Trimipramine(R)] | 0.8 | High (key: High: HIA value ≥0.7; Low: HIA value < 0.7)
34 | Cc1cccc(C)c1NC(=O)[C@@H](C)N [Tocainide(R)] | 1 | High (key: High: HIA value ≥0.7; Low: HIA value < 0.7)
35 | C[C@@H](C(=O)O)c1cccc(Oc2ccccc2)c1 [Fenoprofen(R)] | 0.85 | High (key: High: HIA value ≥0.7; Low: HIA value < 0.7)
36 | Clc1ccc(CO[C@H](Cn2ccnc2)c2ccc(Cl)cc2Cl)c(Cl)c1 [Miconazole(S)] | 0.99 | High (key: High: HIA value ≥0.7; Low: HIA value < 0.7)
37 | Cc1cccc(C)c1NC(=O)[C@H](C)N [Tocainide(S)] | 1 | High (key: High: HIA value ≥0.7; Low: HIA value < 0.7)
38 | CC(C)C[C@@H](N(C)C)C1(c2ccc(Cl)cc2)CCC1 [Sibutramine(R)] | 0.77 | High (key: High: HIA value ≥0.7; Low: HIA value < 0.7)
39 | CC[C@]1(c2cccc(O)c2)CCCCN(C)C1 [Meptazinol(R)] | 1 | High (key: High: HIA value ≥0.7; Low: HIA value < 0.7)
40 | COc1ccc2c3c1O[C@H]1[C@@H](O)C=C[C@H]4[C@@H](C2)N(C)CC[C@@]341 [Codeine] | 0.93 | High (key: High: HIA value ≥0.7; Low: HIA value < 0.7)
41 | CCCCC1C(=O)N(c2ccccc2)N(c2ccccc2)C1=O [Phenylbutazone] | 0.98 | High (key: High: HIA value ≥0.7; Low: HIA value < 0.7)
42 | N#C[C@H](O[C@@H]1O[C@H](CO[C@@H]2O[C@H](CO)[C@@H](O)[C@H](O)[C@H]2O)[C@@H](O)[C@H](O)[C@H]1O)c1ccccc1 [Amygdalin(S)] | 0.05 | Low (key: High: HIA value ≥0.7; Low: HIA value < 0.7)
43 | CC(C)NC[C@@H](O)c1ccc(O)c(O)c1 [Isoproterenol(S)] | 0.85 | High (key: High: HIA value ≥0.7; Low: HIA value < 0.7)
